Experimental data: ChEMBL document CHEMBL3621090, “Discovery of a novel Kv7 channel opener as a treatment for epilepsy” (Bioorg Med Chem Lett, 2015)

What was measured:
[1] = tested on: Rattus norvegicus; assay: Anticonvulsant activity in Sprague-Dawley rat assessed as protection against maximal electroshock-induced convulsion at 1 mg/kg, po administered 60 mins prior to application of shock via corneal electrodes relative to control; format: functional
[2] = Ratio of free drug level in plasma to brain in Sprague-Dawley rat at 3 mg/kg, po administration at 60 mins; format: ADME, organism-based; details: in vivo, 1 h
[3] = Ratio of free drug level in plasma to brain in Sprague-Dawley rat at 30 mg/kg, po administration at 60 mins; format: ADME, organism-based; details: in vivo, 1 h
[4] = tested on: Plasma; assay: Unbound plasma concentration in Sprague-Dawley rat at 30 mg/kg, sc administered at 30 mins by LC-MS/MS analysis; format: ADME, organism-based; details: in vivo, 0.5 h
[5] = tested on: Plasma; assay: Unbound plasma concentration in Sprague-Dawley rat at 30 mg/kg, po administered at 60 mins by LC-MS/MS analysis; format: ADME, organism-based; details: in vivo, 1 h
[6] = target: T1, Potassium voltage-gated channel subfamily KQT member 4 (Rattus norvegicus, UniProt Q9JK96); assay: Activation of rat Kv7.4 expressed in CHOK1 cells; format: cell-based, CHO-K1
T1 sequence (Q9JK96 whole entry): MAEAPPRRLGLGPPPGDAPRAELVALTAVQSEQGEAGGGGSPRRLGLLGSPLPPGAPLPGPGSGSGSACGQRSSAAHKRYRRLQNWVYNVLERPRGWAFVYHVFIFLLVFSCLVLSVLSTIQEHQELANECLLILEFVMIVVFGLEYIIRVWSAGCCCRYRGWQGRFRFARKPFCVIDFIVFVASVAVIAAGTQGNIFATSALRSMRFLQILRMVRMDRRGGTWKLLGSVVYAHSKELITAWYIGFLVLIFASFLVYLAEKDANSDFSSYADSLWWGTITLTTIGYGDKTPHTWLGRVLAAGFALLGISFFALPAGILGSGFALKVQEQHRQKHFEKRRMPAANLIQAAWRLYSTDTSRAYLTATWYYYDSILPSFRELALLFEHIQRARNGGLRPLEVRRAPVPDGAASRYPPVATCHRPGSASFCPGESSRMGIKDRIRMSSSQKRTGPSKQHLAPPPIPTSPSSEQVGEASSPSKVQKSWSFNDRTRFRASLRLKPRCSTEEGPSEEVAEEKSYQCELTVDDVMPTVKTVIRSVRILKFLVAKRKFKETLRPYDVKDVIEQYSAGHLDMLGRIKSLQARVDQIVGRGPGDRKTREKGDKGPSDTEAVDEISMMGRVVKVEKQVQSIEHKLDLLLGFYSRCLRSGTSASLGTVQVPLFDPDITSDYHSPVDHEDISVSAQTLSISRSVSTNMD

[7] = tested on: Brain; assay: Fraction unbound in Sprague-Dawley rat brain at 1 mg/kg, sc administered at 30 mins by LC-MS/MS analysis; format: ADME, organism-based; details: in vivo, 0.5 h
[8] = tested on: Rattus norvegicus; assay: Anticonvulsant activity in po dosed Sprague-Dawley rat assessed as protection against maximal electroshock-induced convulsion administered 60 mins prior to application of shock via corneal electrodes; format: functional, organism-based
[9] = target: Potassium voltage-gated channel subfamily KQT member 2/member 3 (Rattus norvegicus) (UniProt O88943+O88944); assay: Activation of rat Kv7.2/7.3 expressed in CHOK1 cells assessed as increase in current amplitude relative to control; format: cell-based; details: CHO-K1
[10] = tested on: Plasma; assay: Unbound plasma concentration in Sprague-Dawley rat at 3 mg/kg, po administered at 60 mins by LC-MS/MS analysis; format: ADME, organism-based; details: in vivo, 1 h
[11] = tested on: Brain; assay: Fraction unbound in Sprague-Dawley rat brain at 1 mg/kg, po administered at 60 mins by LC-MS/MS analysis; format: ADME, organism-based; details: in vivo, 1 h
[12] = tested on: Rattus norvegicus; assay: Anticonvulsant activity in Sprague-Dawley rat assessed as protection against maximal electroshock-induced convulsion at 3 mg/kg, po administered 60 mins prior to application of shock via corneal electrodes relative to control; format: functional
[13] = tested on: Rattus norvegicus; assay: Anticonvulsant activity in Sprague-Dawley rat assessed as protection against maximal electroshock-induced convulsion at 1 mg/kg, sc administered 30 mins prior to application of shock via corneal electrodes relative to control; format: functional
[14] = target: T2, Potassium voltage-gated channel subfamily KQT member 4 (Rattus norvegicus) (UniProt Q9JK96); assay: Activation of rat Kv7.4 expressed in CHOK1 cells assessed as increase in current amplitude relative to control; format: cell-based; details: CHO-K1
T2 sequence (whole entry): T1 sequence (Q9JK96 whole entry)

[15] = target: T3, Potassium voltage-gated channel subfamily KQT member 4 (Homo sapiens, UniProt P56696); assay: Activation of human Kv7.4 expressed in CHOK1 cells; format: cell-based, CHO-K1
T3 sequence (P56696 whole entry): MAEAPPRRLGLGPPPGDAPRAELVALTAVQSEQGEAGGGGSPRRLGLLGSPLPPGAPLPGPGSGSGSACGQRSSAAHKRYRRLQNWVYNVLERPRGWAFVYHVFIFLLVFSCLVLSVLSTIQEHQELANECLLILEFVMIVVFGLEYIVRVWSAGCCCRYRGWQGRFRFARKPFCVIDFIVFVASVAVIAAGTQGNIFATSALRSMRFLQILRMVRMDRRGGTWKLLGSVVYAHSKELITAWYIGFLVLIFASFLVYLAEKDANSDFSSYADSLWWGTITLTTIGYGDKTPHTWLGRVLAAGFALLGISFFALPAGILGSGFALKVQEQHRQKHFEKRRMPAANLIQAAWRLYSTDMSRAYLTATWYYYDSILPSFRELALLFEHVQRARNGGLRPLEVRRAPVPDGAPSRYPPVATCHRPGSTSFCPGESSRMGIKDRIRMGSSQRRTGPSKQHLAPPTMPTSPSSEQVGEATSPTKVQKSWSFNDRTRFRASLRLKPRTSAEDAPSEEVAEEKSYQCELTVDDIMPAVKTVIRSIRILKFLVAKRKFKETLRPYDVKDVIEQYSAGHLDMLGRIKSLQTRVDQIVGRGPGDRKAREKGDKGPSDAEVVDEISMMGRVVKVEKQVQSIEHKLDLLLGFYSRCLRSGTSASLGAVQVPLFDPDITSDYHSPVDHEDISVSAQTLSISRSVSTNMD

[16] = tested on: Plasma; assay: Unbound plasma concentration in Sprague-Dawley rat at 10 mg/kg, sc administered at 30 mins by LC-MS/MS analysis; format: ADME, organism-based; details: in vivo, 0.5 h
[17] = tested on: Rattus norvegicus; assay: Anticonvulsant activity in Sprague-Dawley rat assessed as protection against maximal electroshock-induced convulsion at 10 mg/kg, sc administered 30 mins prior to application of shock via corneal electrodes relative to control; format: functional
[18] = tested on: Rattus norvegicus; assay: Anticonvulsant activity in Sprague-Dawley rat assessed as protection against maximal electroshock-induced convulsion at 3 mg/kg, sc administered 30 mins prior to application of shock via corneal electrodes relative to control; format: functional
[19] = tested on: Brain; assay: Fraction unbound in Sprague-Dawley rat brain at 30 mg/kg, po administered at 60 mins by LC-MS/MS analysis; format: ADME, organism-based; details: in vivo, 1 h
[20] = tested on: Rattus norvegicus; assay: Anticonvulsant activity in Sprague-Dawley rat assessed as protection against maximal electroshock-induced convulsion at 10 mg/kg, po administered 60 mins prior to application of shock via corneal electrodes relative to control; format: functional
[21] = target: Potassium voltage-gated channel subfamily KQT member 2/member 3 (Rattus norvegicus, UniProt O88943+O88944); assay: Activation of rat Kv7.2/7.3 expressed in CHOK1 cells; format: cell-based, CHO-K1
Potassium voltage-gated channel subfamily KQT member 2/member 3, sequence (O88943 whole entry): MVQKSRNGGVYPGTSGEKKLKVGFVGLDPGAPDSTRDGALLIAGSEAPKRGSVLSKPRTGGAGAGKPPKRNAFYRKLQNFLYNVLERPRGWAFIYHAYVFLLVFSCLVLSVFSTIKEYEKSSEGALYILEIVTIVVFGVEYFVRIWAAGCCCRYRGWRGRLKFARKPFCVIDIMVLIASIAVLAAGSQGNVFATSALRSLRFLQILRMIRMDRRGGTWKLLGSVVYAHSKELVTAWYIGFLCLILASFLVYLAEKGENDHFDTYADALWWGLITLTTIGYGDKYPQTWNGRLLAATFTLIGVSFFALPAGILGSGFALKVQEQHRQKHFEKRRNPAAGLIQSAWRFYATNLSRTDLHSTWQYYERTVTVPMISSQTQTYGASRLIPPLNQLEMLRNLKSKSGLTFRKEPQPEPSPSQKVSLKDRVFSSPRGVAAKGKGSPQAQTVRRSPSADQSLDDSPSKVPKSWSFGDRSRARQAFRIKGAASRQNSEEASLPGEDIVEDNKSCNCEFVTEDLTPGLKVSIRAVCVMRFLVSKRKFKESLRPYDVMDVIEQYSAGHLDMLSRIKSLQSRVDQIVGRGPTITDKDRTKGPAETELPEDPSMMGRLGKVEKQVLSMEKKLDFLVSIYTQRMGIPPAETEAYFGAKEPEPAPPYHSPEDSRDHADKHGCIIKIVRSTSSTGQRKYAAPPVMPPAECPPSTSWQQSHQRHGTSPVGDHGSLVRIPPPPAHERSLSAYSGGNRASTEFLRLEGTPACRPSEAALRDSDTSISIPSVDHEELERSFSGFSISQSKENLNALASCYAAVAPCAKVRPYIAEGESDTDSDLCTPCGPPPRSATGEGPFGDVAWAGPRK
Potassium voltage-gated channel subfamily KQT member 2/member 3, sequence (O88944 whole entry): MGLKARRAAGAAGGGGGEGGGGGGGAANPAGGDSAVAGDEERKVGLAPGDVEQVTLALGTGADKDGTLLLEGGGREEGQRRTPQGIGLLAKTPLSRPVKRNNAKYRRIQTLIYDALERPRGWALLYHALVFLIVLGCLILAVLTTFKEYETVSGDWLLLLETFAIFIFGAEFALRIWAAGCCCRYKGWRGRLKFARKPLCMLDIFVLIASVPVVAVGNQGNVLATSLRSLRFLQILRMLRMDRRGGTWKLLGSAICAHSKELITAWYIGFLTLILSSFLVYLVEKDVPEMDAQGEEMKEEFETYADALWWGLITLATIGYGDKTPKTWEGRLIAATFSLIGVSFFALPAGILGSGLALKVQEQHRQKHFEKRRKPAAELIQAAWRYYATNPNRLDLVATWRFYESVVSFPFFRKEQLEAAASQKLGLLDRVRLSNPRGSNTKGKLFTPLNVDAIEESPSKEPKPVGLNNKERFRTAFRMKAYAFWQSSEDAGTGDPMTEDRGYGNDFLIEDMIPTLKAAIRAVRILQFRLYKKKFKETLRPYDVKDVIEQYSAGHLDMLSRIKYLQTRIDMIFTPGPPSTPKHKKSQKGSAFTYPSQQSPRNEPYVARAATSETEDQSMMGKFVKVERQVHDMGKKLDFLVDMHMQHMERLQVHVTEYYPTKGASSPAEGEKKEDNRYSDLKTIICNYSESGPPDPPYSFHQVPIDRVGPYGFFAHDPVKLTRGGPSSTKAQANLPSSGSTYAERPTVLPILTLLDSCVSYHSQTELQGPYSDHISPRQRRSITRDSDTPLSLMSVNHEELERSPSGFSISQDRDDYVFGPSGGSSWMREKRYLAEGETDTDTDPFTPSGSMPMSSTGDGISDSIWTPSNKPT

[22] = Toxicity in human THLE cells assessed as ATP depletion; format: cell-based
[23] = Fraction unbound in rat plasma by equilibrium dialysis method; format: ADME, cell-free

For COc1nc(N2CCC(OC)CC2)nc(OC)c1NC(=O)CC(C)(C)C, the Activity [1] was 0%, the Ratio [2] was 0.39 and the Ratio [3] was 0.48. For the same molecule, the “Cp(f)” value [4] was 305 nM, the “Cp(f)” value [5] was 572 nM and the EC50 [6] was 376 nM. The “Drug uptake(free)” value [7] was 33 nM, the Activity [8] was “Dose-dependent effect” and the Activity [9] was 237%. For the same molecule, the “Cp(f)” value [10] was 109 nM, the “Drug uptake(free)” value [11] was 6 nM and the Activity [12] was 88%. It also gave an Activity [13] of 43%, an Activity [14] of 161% and an EC50 [15] of 625 nM. The “Cp(f)” value [16] was 211 nM, the Activity [17] was 100% and the Activity [18] was 100%. The “Drug uptake(free)” value [19] was 274 nM, the Activity [20] was 100% and the EC50 [21] was 294 nM. The IC50 [22] was over 300 µM and the fraction unbound [23] was 0.184.
